Measurements published in patent US20260097111A1, “ETHER LIPIDS FOR HYPERACTIVATION OF MAMMALIAN DENDRITIC CELLS” (priority 2022, published 2026).
Entries after “also recorded” stand apart in the source; their conditions may differ. Read-outs that look alike come from different tables or passages of the source.

Key:
[1] = tested on: human monocyte-derived dendritic cells (moDCs); assay: IL-1β secretion by human moDCs treated with lipid and R848; assay type: cell-based; settings: for IL-1β secretion: human moDCs
Method: (§1) Human monocytes were isolated from Leukopaks purchased from Miltenyi using the StraightFrom Leukopak CD14 microbead kit (Miltenyi). Isolations were completed following manufacturer's instructions. Monocytes were then aliquoted and frozen in fetal bovine serum containing 10% dimethyl sulfoxide. For studies with monocyte-derived dendritic cell (moDC) cultures, monocytes were thawed and cultured in RPMI medium containing 10% FBS, 50 units/mL penicillin, […] streptomycin, 2 mM L-glutamine, 1 mM sodium pyruvate, […] beta-mercaptoethanol, 10 mM HEPES, and Gibco MEM non-essential amino acids (R10 media). To differentiate monocytes into moDCs, recombinant human GM-CSF (50 ng/mL) and IL-4 (25 ng/mL) were added to R10 media. Cells were cultured for 6 days with GM-CSF and IL-4, with an additional cell feeding with R10 containing GM-CSF and IL-4 on day 3.
Six days after differentiation, moDC were collected and counted. Cells were plated into 96-well flat-bottom plates at 1×10^5 cells/well. Cells were treated with or without 1 μg/mL R848 (final) and with or without a hyperactivating lipid (or vehicle control). In some experiments, MCC950, an inhibitor of the NLRP3 inflammasome, was added at a final concentration of 10 uM. In some experiments, nigericin, which causes NLRP3 inflammasome activation and subsequent pyroptosis, was used as a positive control at 20 uM. Cells and stimuli totaled a final volume of […].
Lipid stocks were then further diluted in PBS to treat cells.
(§2) After an overnight incubation, cells and culture supernatant were used for downstream readouts. One hundred and fifty microliters of cell supernatant were collected. Viability was measured using the CellTiter-Glo assay (Promega) which measures ATP content from cells. Fifty microliters of CellTiter-Glo reagent were added to 50 μL of cells. Luminescence was quantified on a SpectraMax m5e plate reader using an integration time of 500 milliseconds. Viability data were set relative to control conditions where cells were treated with only R848. To measure IL-1β secretion, the human IL-1β Lumit kit (Promega) was used to assay cell culture supernatant. Culture supernatant samples were incubated with enzyme-linked antibodies in a 384-well plate for 1 hour before addition of luminescent substrate. Samples were measured for luminescence with an integration time of 500 milliseconds. IL-1β concentrations of samples was determined by interpolation from a standard curve using 4-parameter logistic regression analysis. Studies were performed on three different human donor samples, and each biological condition was tested in triplicate. Graphed data represent means from each donor.
as §1, with “Human moDC Production. Human” for “Human”, “(Miltenyi) according to the” for “(Miltenyi). Isolations were completed following”, “To differentiate” for “For studies with”, “pyruvate, and” for “pyruvate,”, “beta-mercaptoethanol” for “beta-mercaptoethanol, 10 mM HEPES, and Gibco MEM non-essential amino acids”
Hyperactivating Lipid Formulation—Compound 10. Lipid stocks were formulated at 200 μg/mL lipid in 5% Kolliphor P407 (KP407) in PBS.

Solubility observations = assay type: physicochemical
human moDCs [2] = assay: Cell viability of human moDCs (CellTiter-Glo); assay type: cell-based; settings: human moDCs, 20.6 μM lipid; FIG. 19
Method: as §2
Measurement of Cytokine Secretion and Cell Viability. After an overnight incubation, cells and culture supernatant were used for downstream readouts. One hundred and fifty microliters of cell culture supernatant were collected. Viability was measured using the CellTiter-Glo assay (Promega) which measures ATP content from cells. Fifty microliters of CellTiter-Glo reagent were added to 50 μL of cells. Luminescence was quantified on a SpectraMax m5e plate reader using an integration time of 500 milliseconds. Viability data were set relative to control conditions where cells were treated with only R848. To measure IL-1β secretion, the human IL-1β Lumit kit (Promega) was used. […] Samples were measured for luminescence with an integration time of 500 milliseconds. IL-1β concentrations of samples was determined by interpolation from a standard curve using 4-parameter logistic regression analysis. […]

human moDCs [3] = assay: IL-6 secretion by human moDCs; assay type: cell-based
human moDC = assay: IL-1β ELISA, human moDC treated with R848, DGP, MCC950; assay type: cell-based; settings: only R848 2.85 μM, donor HD94
Method: Monocyte Isolation, Storage, and Differentiation into moDC. Human leukapheresis blood products were freshly obtained from AllCells via same day or overnight shipping at 4° C. Miltenyi StraightFrom Leukopak CD14 MicroBead isolation kits were used according to manufacturer instructions to isolate CD14+ monocytes. Briefly, leukopaks ranging in quantity from 5×10^9 to 1×10^10 total nucleated cells were evenly aliquoted into 50 mL conical tubes. Cells were incubated with CD14 microbeads and then loaded on the MultiMACS using the program “Possel2”. After washing out the negative population, CD14+ cells were eluted from the columns and counted. An aliquot of monocytes was used to stain for purity of cells to ensure that isolated live cells were […] CD11c+CD14+ by flow cytometry. […] Vials were placed in CoolCell freezing containers and placed in a −80° C. freezer and stored no longer than 1 week. Frozen cells were transferred for long-term storage to the vapor phase of a liquid nitrogen freezer until use.
To differentiate monocytes into moDC, vials of cells were taken out of the liquid nitrogen freezer and quickly thawed in a 37° C. water bath. Cells were diluted ten-fold in warmed R10++ media containing 50 units/mL benzonase. R10++ media was composed of RPMI 1640 media containing 10% fetal bovine serum, 50 units/mL penicillin, […] streptomycin, 2 mM L-glutamine, 1 mM sodium pyruvate, […] beta-mercaptoethanol, 10 mM HEPES, and 1% Gibco MEM non-essential amino acids. After gentle mixing by inversion of tubes, cells were incubated at 37° C. for 10 min. Cells were pelleted at 400×g for 5 min and supernatant was aspirated. Cells were resuspended in R10++ media and counted on the MoxiGo by diluting an aliquot in PBS containing a final concentration of 2.5 μg/mL propidium iodide. Cells were plated in T75 culture flasks at 3-6×10^7 cells per flask in a total of 20 mL R10++ media containing a final concentration of 50 ng/mL GM-CSF and 25 ng/mL IL-4. Three days after the start of culture, an additional 10 mL R10++ containing 50 ng/mL GM-CSF and 25 ng/mL IL-4 was added to each flask.
Six days after start of differentiation. R10++ media containing cells were placed into 50 mL conical tubes. Flasks were washed with an additional 10 mL PBS and also collected. […] Cells were resuspended in R10++ media and counted on the MoxiGo by diluting an aliquot in PBS containing a final concentration of 2.5 μg/mL propidium iodide. Cells were then adjusted to 1×10^6 cells/mL in R10++ media.
moDC Treatment. Human moDC were plated at 1×10^5 cells/well in 96-well flat-bottom tissue culture plates in R10++ media by adding 100 μL of cells per well. To each well, a 25 μL solution of R10++ containing 400 ng/mL GM-CSF and 200 ng/mL IL-4 was added.
Lyophilized R848 stocks were prepared as described above and frozen at −80° C. An aliquot of frozen R848 was thawed and further diluted to 11.4 μM in R10++ (4 μg/mL R848). Cell culture conditions receiving R848 treatment had 50 μL added to wells. For wells not receiving R848, 50 μL R10++ was added to wells. Lyophilized MCC950 was prepared as described above and stored at −20° C. MCC950 was further diluted to 40 uM in a prepared R10++ solution containing 11.4 μM R848. Cells receiving R848 and MCC950 treatment had 50 μL added to wells. Final concentrations of R848 and MCC950 in a total 200 μL volume were respectively 2.85 μM and 10 μM.
A4.44% solution of KP407 dissolved in sterile, distilled water was prepared at a temperature of 4° C. […]

[4] = Serum chemokines and cytokines after SC injection; assay type: in vivo, mice; settings: mouse, in vivo, sc
Method: Lipid Preparation. […] Lipids were used for chemical injections or DC treatment within one hour of their preparation.
Subcutaneous (SC) Injection. Mice were placed under Isoflurane for a few min for anesthesia. Tubes containing the chemicals were vortexed for 30 seconds, then loaded with a 1 mL Sub-Q syringe.
Blood Collection. Mice were placed under Isoflurane for approximately 10 min for anesthesia. Using a 21G needle, mice were gently poked through the skin to the submandibular space to induce bleeding. Five-Six drops were collected in a mini collect K2EDTA blood collection tube. Blood samples were transported back to Corner Therapeutics lab on ice. The blood was then centrifuged at 1500×g for 5 min. After centrifugation, blood was collected into a 96-well round bottom plate and stored at −80° C.
Measurement of Serum Chemokines and Cytokines. Secreted cytokines were measured in the supernatant by cytokine bead array using the LEGENDplex™ Mouse Murine Proinflammatory Chemokine, Murine Cytokine Release Syndrome Legendplex and LEGENDplex™ Mouse Cytokine Panel 2 (Biolegend) according to the manufacturer's protocol. Data were collected using a Quanteon Novocyte flow cytometer and analyzed using the cloud-based software provided by Biolegend.

human moDCs [5] = settings: for IFNα2: R848 stimulation, FIG. 33B
[6] = 41.25 μM lipid with R848, FIG. 17

Molecule: 1-behenoyl-2-hydroxy-sn-glycero-3-phosphocholine [22:0 lyso PC, reference compound]
- IL-1β secretion [1, 6]: significant increase in IL-1β
- IL-1β secretion ([1]; 41.25 μM lipid with R848 vs vehicle control, FIG. 8): produced significantly more IL-1β
- IL-1β secretion ([1]; 41.3 uM lipid with R848, FIG. 11): robustly induced IL-113 secretion
- IL-1β secretion ([1]; 24 hours, lipid (equimolar, in 0.5% KP407) with R848, FIG. 1B): IL-1β was secreted
- IL-1β secretion ([1]; 24 hours, lipid in 4% KP407 with R848, FIG. 2B): induced a detectable amount of IL-1β
- solubility (Solubility observations): can be dissolved in ethanol, methanol, or chloroform

Molecule: CCCCCCCCCCCCCCCCCCCCCCOC[C@@H](O)COP(=O)([O-])OCC[N+](C)(C)C [Compound 1, 1-docosyl-sn-glycerol-3-phosphocholine]
- hyperactivation of human dendritic cells ([1]; 41.25 μM lipid with R848 (Compound 1 also 20.6 μM)): hyperactivated dendritic cells
- IL-1β secretion ([1]; 20.6 μM lipid, FIG. 20): induced IL-1β secretion that was dependent upon R848 stimulation and the NLRP3 inflammasome
- IL-1β secretion [1, 6]: significantly increased IL-1β secretion
- IL-1β secretion ([1]; 24 hours, lipid (equimolar, in 0.5% KP407) with R848, FIG. 1B, listed as DGPC): also induced IL-1β secretion; also recorded: induced less IL-1β than 22:0 lyso PC
- cell viability (human moDCs [2]): > 75%
- solubility (Solubility observations): can be dissolved in ethanol, methanol, or chloroform

Molecule: CCOCc1nc2c(N)nc3ccccc3c2n1CC(C)(C)O [Compound R848, resiquimod, reference compound]
- IL-6 in cell culture supernatant (human moDCs [3]; human moDCs stimulated with R848, FIG. 10): greater than 20,000 μg/mL
- IL-6 secretion (human moDCs [3]; human moDCs, R848 with vehicle, no hyperactivating lipid, FIG. 16): approximately 20,000 μg/mL
- IL-1β (human moDC): 288 µg/mL
- cytokine and chemokine release in the serum [4]: returned to homeostasis (PBS levels) by 24 hours post injection
- IFNα2 (human moDCs [5]; donor HD92): 94 µg/mL
- IFNα2 (human moDCs [5]; donor HD93): 82 µg/mL
- IL-12p70 (human moDCs [5]; donors HD92 and HD93, FIG. 32C): at least 100 μg/mL
